Values of other authors, collected in patent US11654154B2, “Process for preparing injectable Fosaprepitant Dimeglumine compositions having improved storage stability” (Navinta III Inc, priority 2019, dated 2023).
Entries after “also recorded” stand apart in the source; their conditions may differ.

Experiments:
[1] = test system: chemotherapy induced nausea and vomiting (CINV); conditions: added to standard regimen of ondansetron and dexamethasone; highly emetogenic cisplatin-based chemotherapy
[2] = for Solubility in water / aqueous solution (in words): water or aqueous solution

Solubility in water ([2]; water)	Structure (SMILES)	Protection against CINV [1]	Solubility in water / aqueous solution (in words) [2]
–	C[C@@H](O[C@H]1OCCN(Cc2n[nH]c(=O)[nH]2)[C@H]1c1ccc(F)cc1)c1cc(C(F)(F)F)cc(C(F)(F)F)c1 [Aprepitant]	consistently superior protection	limited solubility; also recorded: minimal solubility
about 300 mg/mL	C[C@@H](O[C@H]1OCCN(Cc2nc(O)n(P(=O)(O)O)n2)[C@H]1c1ccc(F)cc1)c1cc(C(F)(F)F)cc(C(F)(F)F)c1 [Fosaprepitant]	–	good solubility
